Usually pIC50 stands for −log10 of the IC50, conventionally taken in molar units.

The source of these data is patent US20240034737A1, “Heterocyclic Derivatives as P2X7 Receptor Antagonists” (BREYE THERAPEUTICS APS, priority 2020, published 2024).

For one test, the target named is mP2X7 (Mus musculus (Mouse), UniProt Q9Z1M0). Put plainly: mP2X7 channel calcium-influx assay (Fluo-8 NW, FLIPR TETRA, Bz-ATP stimulation). The test is classed as cell-based. The procedure: (§1) Extracellular binding of Bz-ATP to P2X7 receptor opens the channel and allows Ca^2+ influx into the cells. This Ca^2+ entry was measured in HEK-293 cells stably transfected with P2X7 receptor using Screen Quest™ Fluo-8 No Wash Calcium Assay Kit (AAt Bioquest®, cat. 36316). Once inside the cell, the lipophilic blocking groups of Fluo-8 are cleaved by non-specific cell esterases, resulting in a negatively-charged fluorescent dye that stays inside cells. Its fluorescence increases upon binding to calcium. When HEK-293/P2X7 cells are stimulated with Bz-ATP, Ca^2+ enters the cells and the fluorescence of Fluo-8 NW increases.
mP2X7, sequence (Q9Z1M0 whole entry): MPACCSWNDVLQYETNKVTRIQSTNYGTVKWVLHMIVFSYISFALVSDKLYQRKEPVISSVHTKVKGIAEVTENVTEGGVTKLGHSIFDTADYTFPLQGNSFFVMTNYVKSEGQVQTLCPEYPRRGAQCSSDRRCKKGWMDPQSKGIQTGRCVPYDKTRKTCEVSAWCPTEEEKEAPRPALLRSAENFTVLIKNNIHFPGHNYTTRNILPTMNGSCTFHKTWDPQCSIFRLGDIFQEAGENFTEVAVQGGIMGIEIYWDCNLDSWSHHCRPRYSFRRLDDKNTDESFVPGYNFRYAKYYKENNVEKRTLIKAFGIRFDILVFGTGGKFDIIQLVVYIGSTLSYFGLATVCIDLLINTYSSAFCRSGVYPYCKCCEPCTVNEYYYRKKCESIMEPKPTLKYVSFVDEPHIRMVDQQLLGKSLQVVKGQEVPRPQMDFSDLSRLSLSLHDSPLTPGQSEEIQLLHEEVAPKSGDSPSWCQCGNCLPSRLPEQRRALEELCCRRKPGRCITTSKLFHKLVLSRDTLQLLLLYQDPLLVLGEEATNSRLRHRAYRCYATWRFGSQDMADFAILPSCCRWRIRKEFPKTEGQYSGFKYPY
(§2) HEK-293 cells stably transfected with P2X7 receptor were seeded overnight in growth medium at 10,000 to 20,000 cells/well in 384-well plate. 24 hours later, the medium was removed, and the cells were pre-loaded at RT for 1 hour with 20 μL/w of Fluo-8 NW. Then 10 μL/w of test compounds and reference antagonist A438079 at 3X-concentration were injected with the […] and the kinetic response over a period of five minutes was monitored.

Another test has as its target P2X7 receptor (Homo sapiens (Human), UniProt Q99572). Put plainly: Human P2X7 channel calcium-influx assay (Fluo-8 NW, FLIPR TETRA, Bz-ATP stimulation). The test is classed as cell-based. The conditions noted are these: HEK-293 cells stably transfected with P2X7 receptor, Low Divalent Cation Assay Buffer, read-out: hP2X7 IC50. The procedure: as §1, §2

The structures appear in SMILES notation. pIC50: −log10 of the molar value.

P2X7 receptor, sequence (Q99572 whole entry): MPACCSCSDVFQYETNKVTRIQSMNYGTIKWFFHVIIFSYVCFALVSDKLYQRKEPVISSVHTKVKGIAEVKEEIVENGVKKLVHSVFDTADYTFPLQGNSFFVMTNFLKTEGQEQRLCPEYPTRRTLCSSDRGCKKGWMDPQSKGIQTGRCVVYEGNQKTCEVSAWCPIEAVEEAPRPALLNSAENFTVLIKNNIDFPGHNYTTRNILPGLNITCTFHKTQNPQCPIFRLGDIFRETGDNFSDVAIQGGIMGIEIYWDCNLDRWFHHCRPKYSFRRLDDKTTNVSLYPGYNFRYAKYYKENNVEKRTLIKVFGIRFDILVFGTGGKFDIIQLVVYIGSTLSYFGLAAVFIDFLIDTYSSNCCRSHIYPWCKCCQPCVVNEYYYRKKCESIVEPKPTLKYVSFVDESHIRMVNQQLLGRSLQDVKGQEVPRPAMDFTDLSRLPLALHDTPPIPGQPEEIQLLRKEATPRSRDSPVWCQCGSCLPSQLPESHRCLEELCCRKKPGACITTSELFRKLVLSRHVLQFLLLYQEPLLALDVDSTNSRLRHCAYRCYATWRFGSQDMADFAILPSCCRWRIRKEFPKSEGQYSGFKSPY

For `O=C(NCC(c1scnc1C(F)F)N1CCC(COc2cc(C(F)(F)F)ncn2)CC1)c1c(F)cccc1Cl` (stereo not drawn) [Example 115, 2-Chloro-N-{2-[4-(difluoromethyl)-1,3-thiazol-5-yl]-2-[4-({[6-(trifluoromethyl)pyrimidin-4-yl]oxy}methyl)piperidin-1-yl]ethyl}-6-fluorobenzamide], the pIC50 at mP2X7 was 7.35; on P2X7 receptor, 7.13.
Take `Cc1c(F)ncnc1OCC1CCN(C(CNC(=O)c2c(F)cccc2Cl)c2scnc2C(F)F)CC1` (stereo not drawn) [Example 113, 2-Chloro-N-{2-[4-(difluoromethyl)-1,3-thiazol-5-yl]-2-(4-{[(6-fluoro-5-methylpyrimidin-4-yl)oxy]methyl}piperidin-1-yl)ethyl}-6-fluorobenzamide]: the pIC50 on mP2X7 is 7.76; at P2X7 receptor it was 7.41.
For `N#Cc1ncccc1OCC1CCN(C(CNC(=O)c2c(F)cccc2Cl)c2scnc2C(F)F)CC1` (stereo not drawn) [Example 90, 2-Chloro-N-[2-(4-{[(2-cyanopyridin-3-yl)oxy]methyl}piperidin-1-yl)-2-[4-(difluoromethyl)-1,3-thiazol-5-yl]ethyl]-6-fluorobenzamide], the figures for the pIC50 at mP2X7 and at P2X7 receptor were 7.59 and 7.70, respectively.
The like results for `O=C(NCC(c1scnc1C(F)F)N1CCC(COc2nc(Cl)cs2)CC1)c1c(F)cccc1Cl` (stereo not drawn) [Example 83, 2-Chloro-N-[2-(4-{[(4-chloro-1,3-thiazol-2-yl)oxy]methyl}piperidin-1-yl)-2-[4-(difluoromethyl)-1,3-thiazol-5-yl]ethyl]-6-fluorobenzamide] were, in that order, 7.49 and 7.89.
The like results for `O=C(NCC(c1scnc1C(F)F)N1CCC(Oc2nccc(C(F)(F)F)n2)CC1)c1c(F)cccc1Cl` (stereo not drawn) [Example 42, 2-Chloro-N-{2-[4-(difluoromethyl)-1,3-thiazol-5-yl]-2-(4-{[4-(trifluoromethyl)pyrimidin-2-yl]oxy}piperidin-1-yl)ethyl}-6-fluorobenzamide] were, in that order, 6.97 and 7.22.
The like results for `Cc1ncnc(OC2CCN(C(CNC(=O)c3c(F)cccc3Cl)c3scnc3C(F)F)CC2)c1F` (stereo not drawn) [Example 56, 2-Chloro-N-{2-[4-(difluoromethyl)-1,3-thiazol-5-yl]-2-{4-[(5-fluoro-6-methylpyrimidin-4-yl)oxy]piperidin-1-yl}ethyl}-6-fluorobenzamide] were, in that order, 7.09 and 7.27.
For `O=C(NCC(c1scnc1C(F)F)N1CCC(Oc2ncccc2Cl)CC1)c1c(F)cccc1Cl` (stereo not drawn) [Example 47, 2-Chloro-N-(2-{4-[(3-chloropyridin-2-yl)oxy]piperidin-1-yl}-2-[4-(difluoromethyl)-1,3-thiazol-5-yl]ethyl)-6-fluorobenzamide], the pIC50 is 7.36 at mP2X7 and 7.51 at P2X7 receptor.
The like results for `O=C(NCC(c1scnc1C(F)F)N1CCC(COc2ccnc(F)n2)CC1)c1c(F)cccc1Cl` (stereo not drawn) [Example 107, 2-Chloro-N-{2-[4-(difluoromethyl)-1,3-thiazol-5-yl]-2-(4-{[(2-fluoropyrimidin-4-yl)oxy]methyl}piperidin-1-yl)ethyl}-6-fluorobenzamide] were, in that order, 7.62 and 7.26.
In the same order, the values of `O=C(NCC(c1scnc1C(F)F)N1CCC(Oc2nnnn2-c2ccccc2)CC1)c1c(F)cccc1Cl` (stereo not drawn) [Example 25, 2-Chloro-N-{2-[4-(difluoromethyl)-1,3-thiazol-5-yl]-2-{4-[(1-phenyl-1H-1,2,3,4-tetrazol-5-yl)oxy]piperidin-1-yl}ethyl}-6-fluorobenzamide] are 7.34 and 7.24.
For `O=C(NCC(c1scnc1C(F)F)N1CCC(Oc2nc(-c3ccccc3)no2)CC1)c1c(F)cccc1Cl` (stereo not drawn) [Example 24, 2-Chloro-N-{2-[4-(difluoromethyl)-1,3-thiazol-5-yl]-2-{4-[(3-phenyl-1,2,4-oxadiazol-5-yl)oxy]piperidin-1-yl}ethyl}-6-fluorobenzamide], the pIC50 was 7.49 on mP2X7 and 7.01 at P2X7 receptor.
The like results for `O=C(NCC(c1scnc1C(F)F)N1CCC(Oc2cccnn2)CC1)c1c(F)cccc1Cl` (stereo not drawn) [Example 71, 2-Chloro-N-{2-[4-(difluoromethyl)-1,3-thiazol-5-yl]-2-[4-(pyridazin-3-yloxy)piperidin-1-yl]ethyl}-6-fluorobenzamide] were, in that order, 6.65 and 7.23.
In the same order, the values of `Cc1ccnc(OCC2CCN(C(CNC(=O)c3c(F)cccc3Cl)c3scnc3C(F)F)CC2)c1` (stereo not drawn) [Example 89, 2-Chloro-N-{2-[4-(difluoromethyl)-1,3-thiazol-5-yl]-2-(4-{[(4-methylpyridin-2-yl)oxy]methyl}piperidin-1-yl)ethyl}-6-fluorobenzamide] are 7.62 and 7.53.
The like results for `O=C(NCC(c1scnc1C(F)F)N1CCC(Oc2ccncc2F)CC1)c1c(F)cccc1Cl` (stereo not drawn) [Example 6, 2-chloro-N-{2-[4-(difluoromethyl)-1,3-thiazol-5-yl]-2-{4-[(3-fluoropyridin-4-yl)oxy]piperidin-1-yl}ethyl}-6-fluorobenzamide] were, in that order, 7.16 and 7.30.
For `O=C(NCC(c1scnc1C(F)F)N1CCC(Oc2ncccn2)CC1)c1c(F)cccc1Cl` (stereo not drawn) [Example 4, 2-chloro-N-{2-[4-(difluoromethyl)-1,3-thiazol-5-yl]-2-[4-(pyrimidin-2-yloxy)piperidin-1-yl]ethyl}-6-fluorobenzamide], the negative logarithm of the IC50 (pIC50) is 6.39 on mP2X7 and 7.24 at P2X7 receptor.
The like results for `O=C(NCC(c1scnc1C(F)F)N1CCC(Oc2nc(Cl)cs2)CC1)c1c(F)cccc1Cl` (stereo not drawn) [Example 12, 2-Chloro-N-(2-{4-[(4-chloro-1,3-thiazol-2-yl)oxy]piperidin-1-yl}-2-[4-(difluoromethyl)-1,3-thiazol-5-yl]ethyl)-6-fluorobenzamide] were, in that order, 7.36 and 7.93.
With `Cc1nsc(OC2CCN(C(CNC(=O)c3c(F)cccc3Cl)c3scnc3C(F)F)CC2)c1C#N` (stereo not drawn) [Example 53, 2-Chloro-N-(2-{4-[(4-cyano-3-methyl-1,2-thiazol-5-yl)oxy]piperidin-1-yl}-2-[4-(difluoromethyl)-1,3-thiazol-5-yl]ethyl)-6-fluorobenzamide], the pIC50 was 7.41 on mP2X7 and 7.38 at P2X7 receptor.
The like results for `N#Cc1cccc(OCC2CCN(C(CNC(=O)c3c(F)cccc3Cl)c3scnc3C(F)F)CC2)n1` (stereo not drawn) [Example 109, 2-Chloro-N-[2-(4-{[(6-cyanopyridin-2-yl)oxy]methyl}piperidin-1-yl)-2-[4-(difluoromethyl)-1,3-thiazol-5-yl]ethyl]-6-fluorobenzamide] were, in that order, 7.72 and 7.60.
The like results for `O=C(NCC(c1scnc1C(F)F)N1CCC(COc2cncc3nncn23)CC1)c1c(F)cccc1Cl` (stereo not drawn) [Example 118, 2-Chloro-N-{2-[4-(difluoromethyl)-1,3-thiazol-5-yl]-2-[4-({[1,2,4]triazolo[4,3-a]pyrazin-5-yloxy}methyl)piperidin-1-yl]ethyl}-6-fluorobenzamide] were, in that order, 6.59 and 6.67.
In the same order, the values of `O=C(NCC(c1scnc1C(F)F)N1CCC(Oc2cc(F)ncn2)CC1)c1c(F)cccc1Cl` (stereo not drawn) [Example 31, 2-Chloro-N-{2-[4-(difluoromethyl)-1,3-thiazol-5-yl]-2-{4-[(6-fluoropyrimidin-4-yl)oxy]piperidin-1-yl}ethyl}-6-fluorobenzamide] are 6.87 and 7.21.
On to `O=C(NCC(c1scnc1C(F)F)N1CCC(COc2ccc(F)cn2)CC1)c1c(F)cccc1Cl` (stereo not drawn) [Example 102, 2-Chloro-N-{2-[4-(difluoromethyl)-1,3-thiazol-5-yl]-2-(4-{[(5-fluoropyridin-2-yl)oxy]methyl}piperidin-1-yl)ethyl}-6-fluorobenzamide], for which the pIC50 at mP2X7 is 7.47; on P2X7 receptor, 7.49.
As for `N#Cc1cccnc1OCC1CCN(C(CNC(=O)c2c(F)cccc2Cl)c2scnc2C(F)F)CC1` (stereo not drawn) [Example 108, 2-Chloro-N-[2-(4-{[(3-cyanopyridin-2-yl)oxy]methyl}piperidin-1-yl)-2-[4-(difluoromethyl)-1,3-thiazol-5-yl]ethyl]-6-fluorobenzamide], the pIC50 at mP2X7 was 7.88; on P2X7 receptor it was 7.59.
In the case of `Cn1ncc2c(OC3CCN(C(CNC(=O)c4c(F)cccc4Cl)c4scnc4C(F)F)CC3)ncnc21` (stereo not drawn) [Example 51, 2-Chloro-N-{2-[4-(difluoromethyl)-1,3-thiazol-5-yl]-2-[4-({1-methyl-1H-pyrazolo[3,4-d]pyrimidin-4-yl}oxy)piperidin-1-yl]ethyl}-6-fluorobenzamide], the pIC50 at mP2X7 was 7.16; at P2X7 receptor, 7.21.
In the same order, the values of `O=C(NCC(c1scnc1C(F)F)N1CCC(Oc2nccs2)CC1)c1c(F)cccc1Cl` (stereo not drawn) [Example 10, 2-chloro-N-{2-[4-(difluoromethyl)-1,3-thiazol-5-yl]-2-[4-(1,3-thiazol-2-yloxy)piperidin-1-yl]ethyl}-6-fluorobenzamide] are 6.72 and 7.63.
The like results for `Cc1nc(F)cc(OC2CCN(C(CNC(=O)c3c(F)cccc3Cl)c3scnc3C(F)F)CC2)n1` (stereo not drawn) [Example 39, 2-Chloro-N-{2-[4-(difluoromethyl)-1,3-thiazol-5-yl]-2-{4-[(6-fluoro-2-methylpyrimidin-4-yl)oxy]piperidin-1-yl}ethyl}-6-fluorobenzamide] were, in that order, 7.35 and 7.29.
